Results on six compounds are retold here after ChEMBL document CHEMBL4619788, “Chemically Induced Degradation of FAK-ALK for Application in Cancer Therapeutics” (ACS Med Chem Lett, 2020).

Molecules are shown by their SMILES.

Assay [1] concerns the target T1, Protein cereblon/Focal adhesion kinase 1 (Homo sapiens) (UniProt Q05397+Q96SW2). The experiment in a line: Protac activity at CRBN/FAK in human PA-TU-8988T cells assessed as induction of FAK degradation at 10 nM incubated for 4 hrs by immunoblot assay relative to control. Format: cell-based. In general terms: In western blotting, separated proteins are transferred to a membrane and probed.

Assay [2] deals with T1, Protein cereblon/Focal adhesion kinase 1 (Homo sapiens). The experiment in a line: Protac activity at CRBN/FAK in human PA-TU-8988T cells assessed as induction of FAK degradation at 100 nM incubated for 4 hrs by immunoblot assay relative to control. Format: cell-based.

T1 sequence (Q05397 2-1052 limits assumed): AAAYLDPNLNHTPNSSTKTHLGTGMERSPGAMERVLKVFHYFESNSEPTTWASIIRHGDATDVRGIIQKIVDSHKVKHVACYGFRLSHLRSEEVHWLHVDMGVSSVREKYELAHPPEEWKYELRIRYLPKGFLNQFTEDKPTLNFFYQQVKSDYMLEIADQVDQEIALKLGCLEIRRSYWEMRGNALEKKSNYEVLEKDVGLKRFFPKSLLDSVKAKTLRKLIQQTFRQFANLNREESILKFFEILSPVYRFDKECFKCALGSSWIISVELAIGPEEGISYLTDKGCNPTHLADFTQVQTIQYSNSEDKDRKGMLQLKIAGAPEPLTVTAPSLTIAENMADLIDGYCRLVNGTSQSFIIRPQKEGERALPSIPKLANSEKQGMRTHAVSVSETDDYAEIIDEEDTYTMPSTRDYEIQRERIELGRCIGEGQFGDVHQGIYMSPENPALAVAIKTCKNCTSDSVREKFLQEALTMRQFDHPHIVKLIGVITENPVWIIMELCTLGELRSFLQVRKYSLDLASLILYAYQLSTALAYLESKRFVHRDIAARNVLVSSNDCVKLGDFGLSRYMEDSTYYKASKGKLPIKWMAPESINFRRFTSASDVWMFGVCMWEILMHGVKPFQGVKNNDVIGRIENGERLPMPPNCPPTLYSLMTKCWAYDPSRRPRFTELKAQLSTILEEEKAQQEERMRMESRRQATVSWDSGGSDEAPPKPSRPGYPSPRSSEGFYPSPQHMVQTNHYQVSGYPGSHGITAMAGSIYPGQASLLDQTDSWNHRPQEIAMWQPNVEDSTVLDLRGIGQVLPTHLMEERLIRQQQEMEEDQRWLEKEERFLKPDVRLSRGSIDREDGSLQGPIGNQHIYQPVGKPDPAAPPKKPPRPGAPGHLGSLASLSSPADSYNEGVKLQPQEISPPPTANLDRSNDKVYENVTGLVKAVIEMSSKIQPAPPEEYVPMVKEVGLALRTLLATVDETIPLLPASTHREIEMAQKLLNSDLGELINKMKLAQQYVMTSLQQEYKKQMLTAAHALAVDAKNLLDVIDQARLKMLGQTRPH
T1 sequence (Q96SW2 whole entry partner): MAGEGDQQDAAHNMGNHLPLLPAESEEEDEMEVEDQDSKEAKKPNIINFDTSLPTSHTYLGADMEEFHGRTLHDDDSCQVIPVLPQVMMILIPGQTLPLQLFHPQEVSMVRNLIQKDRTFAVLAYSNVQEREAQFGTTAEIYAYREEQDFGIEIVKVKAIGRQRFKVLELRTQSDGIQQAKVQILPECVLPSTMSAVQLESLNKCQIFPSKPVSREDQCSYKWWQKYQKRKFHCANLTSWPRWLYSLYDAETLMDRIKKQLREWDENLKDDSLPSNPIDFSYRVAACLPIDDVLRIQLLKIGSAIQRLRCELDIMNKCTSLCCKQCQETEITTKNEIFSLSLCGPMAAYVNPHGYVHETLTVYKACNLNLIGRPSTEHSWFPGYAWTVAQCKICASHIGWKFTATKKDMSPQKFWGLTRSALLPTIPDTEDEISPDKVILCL

As to `CNC(=O)c1ccccc1Nc1cc(Nc2ccc(N3CCN(CCCCCCCCNC(=O)CNc4cccc5c4C(=O)N(C4CCC(=O)NC4=O)C5=O)CC3)cc2OC)ncc1C(F)(F)F` (configuration not stated), the Activity in assay [1] and in assay [2] was 85 to 100% each time.
Turning to `CNC(=O)c1ccccc1Nc1cc(Nc2ccc(N3CCN(CCCCCCCCNc4cccc5c4C(=O)N(C4CCC(=O)NC4=O)C5=O)CC3)cc2OC)ncc1C(F)(F)F` (configuration not stated), the Activity in assay [1] and in assay [2] was 85 to 100% throughout.
For the compound `CNC(=O)c1ccccc1Nc1cc(Nc2cc(C)c(C3CCN(CCCCCCNC(=O)COc4cccc5c4C(=O)N(C4CCC(=O)NC4=O)C5=O)CC3)cc2OC(C)C)ncc1C(F)(F)F` (configuration not stated), the Activity in assay [1] and in assay [2] was 85 to 100% throughout.
For `CNC(=O)c1ccccc1Nc1cc(Nc2ccc(N3CCN(CCOCCOCCNC(=O)CNc4cccc5c4C(=O)N(C4CCC(=O)NC4=O)C5=O)CC3)cc2OC)ncc1C(F)(F)F` (configuration not stated), the results for the Activity in assay [1] and in assay [2] were 70 to 84% and 85 to 100%, respectively.
In the same order, the values of `CNC(=O)c1ccccc1Nc1cc(Nc2ccc(N3CCN(CCCCCCNC(=O)COc4cccc5c4C(=O)N(C4CCC(=O)NC4=O)C5=O)CC3)cc2OC)ncc1C(F)(F)F` (configuration not stated) are 85 to 100% and 85 to 100%.
In the same order, the values of `CS(=O)(=O)c1cccc(CNc2nc(Nc3ccc(C(=O)NCCCCCCCCNC(=O)COc4cccc5c4C(=O)N(C4CCC(=O)NC4=O)C5=O)cc3)ncc2C(F)(F)F)c1` (configuration not stated) are 25 to 49% and 85 to 100%.
